# ± gives the expanded uncertainty stated by the source.
# Assay: isobaric coefficient of expansion
# Conditions: Liquid, DSC
structure (smiles),measurement,setting,value
C[N+](=O)[O-] [nitromethane],isobaric coefficient of expansion,"278.15 K, 5000 kPa",0.00116 ± 2.8e-05 1/K
same,isobaric coefficient of expansion,"278.15 K, 10000 kPa",0.00114 ± 2.8e-05 1/K
same,isobaric coefficient of expansion,"278.15 K, 15000 kPa",0.00113 ± 2.8e-05 1/K
same,isobaric coefficient of expansion,"278.15 K, 20000 kPa",0.0011 ± 2.7e-05 1/K
same,isobaric coefficient of expansion,"278.15 K, 25000 kPa",0.00108 ± 2.6e-05 1/K
same,isobaric coefficient of expansion,"278.15 K, 30000 kPa",0.00106 ± 2.6e-05 1/K
same,isobaric coefficient of expansion,"278.15 K, 35000 kPa",0.00105 ± 2.6e-05 1/K
same,isobaric coefficient of expansion,"278.15 K, 40000 kPa",0.00103 ± 2.5e-05 1/K
same,isobaric coefficient of expansion,"278.15 K, 45000 kPa",0.00102 ± 2.5e-05 1/K
same,isobaric coefficient of expansion,"278.15 K, 50000 kPa",0.001 ± 2.5e-05 1/K
same,isobaric coefficient of expansion,"278.15 K, 55000 kPa",0.000986 ± 2.4e-05 1/K
same,isobaric coefficient of expansion,"288.15 K, 5000 kPa",0.00118 ± 2.9e-05 1/K
same,isobaric coefficient of expansion,"288.15 K, 10000 kPa",0.00116 ± 2.8e-05 1/K
same,isobaric coefficient of expansion,"288.15 K, 15000 kPa",0.00114 ± 2.8e-05 1/K
same,isobaric coefficient of expansion,"288.15 K, 20000 kPa",0.00112 ± 2.7e-05 1/K
same,isobaric coefficient of expansion,"288.15 K, 25000 kPa",0.0011 ± 2.7e-05 1/K
same,isobaric coefficient of expansion,"288.15 K, 30000 kPa",0.00108 ± 2.6e-05 1/K
same,isobaric coefficient of expansion,"288.15 K, 35000 kPa",0.00106 ± 2.6e-05 1/K
same,isobaric coefficient of expansion,"288.15 K, 40000 kPa",0.00104 ± 2.6e-05 1/K
same,isobaric coefficient of expansion,"288.15 K, 45000 kPa",0.00102 ± 2.5e-05 1/K
same,isobaric coefficient of expansion,"288.15 K, 50000 kPa",0.00101 ± 2.5e-05 1/K
same,isobaric coefficient of expansion,"288.15 K, 55000 kPa",0.000992 ± 2.4e-05 1/K
same,isobaric coefficient of expansion,"298.15 K, 5000 kPa",0.00121 ± 3e-05 1/K
same,isobaric coefficient of expansion,"298.15 K, 10000 kPa",0.00118 ± 2.9e-05 1/K
same,isobaric coefficient of expansion,"298.15 K, 15000 kPa",0.00116 ± 2.8e-05 1/K
same,isobaric coefficient of expansion,"298.15 K, 20000 kPa",0.00113 ± 2.8e-05 1/K
same,isobaric coefficient of expansion,"298.15 K, 25000 kPa",0.00111 ± 2.7e-05 1/K
same,isobaric coefficient of expansion,"298.15 K, 30000 kPa",0.00109 ± 2.7e-05 1/K
same,isobaric coefficient of expansion,"298.15 K, 35000 kPa",0.00107 ± 2.6e-05 1/K
same,isobaric coefficient of expansion,"298.15 K, 40000 kPa",0.00105 ± 2.6e-05 1/K
same,isobaric coefficient of expansion,"298.15 K, 45000 kPa",0.00103 ± 2.5e-05 1/K
same,isobaric coefficient of expansion,"298.15 K, 50000 kPa",0.00101 ± 2.5e-05 1/K
same,isobaric coefficient of expansion,"298.15 K, 55000 kPa",0.000998 ± 2.4e-05 1/K
same,isobaric coefficient of expansion,"308.15 K, 5000 kPa",0.00123 ± 3e-05 1/K
same,isobaric coefficient of expansion,"308.15 K, 10000 kPa",0.0012 ± 2.9e-05 1/K
same,isobaric coefficient of expansion,"308.15 K, 15000 kPa",0.00118 ± 2.9e-05 1/K
same,isobaric coefficient of expansion,"308.15 K, 20000 kPa",0.00115 ± 2.8e-05 1/K
same,isobaric coefficient of expansion,"308.15 K, 25000 kPa",0.00112 ± 2.7e-05 1/K
same,isobaric coefficient of expansion,"308.15 K, 30000 kPa",0.0011 ± 2.7e-05 1/K
same,isobaric coefficient of expansion,"308.15 K, 35000 kPa",0.00108 ± 2.6e-05 1/K
same,isobaric coefficient of expansion,"308.15 K, 40000 kPa",0.00105 ± 2.6e-05 1/K
same,isobaric coefficient of expansion,"308.15 K, 45000 kPa",0.00103 ± 2.5e-05 1/K
same,isobaric coefficient of expansion,"308.15 K, 50000 kPa",0.00102 ± 2.5e-05 1/K
same,isobaric coefficient of expansion,"308.15 K, 55000 kPa",0.001 ± 2.5e-05 1/K
same,isobaric coefficient of expansion,"318.15 K, 5000 kPa",0.00126 ± 3.1e-05 1/K
same,isobaric coefficient of expansion,"318.15 K, 10000 kPa",0.00123 ± 3e-05 1/K
same,isobaric coefficient of expansion,"318.15 K, 15000 kPa",0.00119 ± 2.9e-05 1/K
same,isobaric coefficient of expansion,"318.15 K, 20000 kPa",0.00116 ± 2.8e-05 1/K
same,isobaric coefficient of expansion,"318.15 K, 25000 kPa",0.00113 ± 2.8e-05 1/K
same,isobaric coefficient of expansion,"318.15 K, 30000 kPa",0.00111 ± 2.7e-05 1/K
same,isobaric coefficient of expansion,"318.15 K, 35000 kPa",0.00109 ± 2.7e-05 1/K
same,isobaric coefficient of expansion,"318.15 K, 40000 kPa",0.00106 ± 2.6e-05 1/K
same,isobaric coefficient of expansion,"318.15 K, 45000 kPa",0.00104 ± 2.6e-05 1/K
same,isobaric coefficient of expansion,"318.15 K, 50000 kPa",0.00103 ± 2.5e-05 1/K
same,isobaric coefficient of expansion,"318.15 K, 55000 kPa",0.00101 ± 2.5e-05 1/K
same,isobaric coefficient of expansion,"328.15 K, 5000 kPa",0.00129 ± 3.2e-05 1/K
same,isobaric coefficient of expansion,"328.15 K, 10000 kPa",0.00126 ± 3.1e-05 1/K
same,isobaric coefficient of expansion,"328.15 K, 15000 kPa",0.00121 ± 3e-05 1/K
same,isobaric coefficient of expansion,"328.15 K, 20000 kPa",0.00117 ± 2.9e-05 1/K
same,isobaric coefficient of expansion,"328.15 K, 25000 kPa",0.00114 ± 2.8e-05 1/K
same,isobaric coefficient of expansion,"328.15 K, 30000 kPa",0.00112 ± 2.7e-05 1/K
same,isobaric coefficient of expansion,"328.15 K, 35000 kPa",0.0011 ± 2.7e-05 1/K
same,isobaric coefficient of expansion,"328.15 K, 40000 kPa",0.00107 ± 2.6e-05 1/K
same,isobaric coefficient of expansion,"328.15 K, 45000 kPa",0.00105 ± 2.6e-05 1/K
same,isobaric coefficient of expansion,"328.15 K, 50000 kPa",0.00103 ± 2.5e-05 1/K
same,isobaric coefficient of expansion,"328.15 K, 55000 kPa",0.00101 ± 2.5e-05 1/K
same,isobaric coefficient of expansion,"338.15 K, 5000 kPa",0.00134 ± 3.3e-05 1/K
same,isobaric coefficient of expansion,"338.15 K, 10000 kPa",0.00128 ± 3.1e-05 1/K
same,isobaric coefficient of expansion,"338.15 K, 15000 kPa",0.00124 ± 3e-05 1/K
same,isobaric coefficient of expansion,"338.15 K, 20000 kPa",0.0012 ± 3e-05 1/K
same,isobaric coefficient of expansion,"338.15 K, 25000 kPa",0.00117 ± 2.9e-05 1/K
same,isobaric coefficient of expansion,"338.15 K, 30000 kPa",0.00113 ± 2.8e-05 1/K
same,isobaric coefficient of expansion,"338.15 K, 35000 kPa",0.00111 ± 2.7e-05 1/K
same,isobaric coefficient of expansion,"338.15 K, 40000 kPa",0.00107 ± 2.6e-05 1/K
same,isobaric coefficient of expansion,"338.15 K, 45000 kPa",0.00105 ± 2.6e-05 1/K
same,isobaric coefficient of expansion,"338.15 K, 50000 kPa",0.00103 ± 2.5e-05 1/K
same,isobaric coefficient of expansion,"338.15 K, 55000 kPa",0.00102 ± 2.5e-05 1/K
same,isobaric coefficient of expansion,"348.15 K, 5000 kPa",0.00138 ± 3.4e-05 1/K
same,isobaric coefficient of expansion,"348.15 K, 10000 kPa",0.00132 ± 3.2e-05 1/K
same,isobaric coefficient of expansion,"348.15 K, 15000 kPa",0.00127 ± 3.1e-05 1/K
same,isobaric coefficient of expansion,"348.15 K, 20000 kPa",0.00122 ± 3e-05 1/K
same,isobaric coefficient of expansion,"348.15 K, 25000 kPa",0.00119 ± 2.9e-05 1/K
same,isobaric coefficient of expansion,"348.15 K, 30000 kPa",0.00115 ± 2.8e-05 1/K
same,isobaric coefficient of expansion,"348.15 K, 35000 kPa",0.00112 ± 2.7e-05 1/K
same,isobaric coefficient of expansion,"348.15 K, 40000 kPa",0.00108 ± 2.6e-05 1/K
same,isobaric coefficient of expansion,"348.15 K, 45000 kPa",0.00106 ± 2.6e-05 1/K
same,isobaric coefficient of expansion,"348.15 K, 50000 kPa",0.00103 ± 2.5e-05 1/K
same,isobaric coefficient of expansion,"348.15 K, 55000 kPa",0.00102 ± 2.5e-05 1/K

# Reference: the NIST ThermoML archive (doi:10.1021/je900672g)
